Among the data in the SangsterLogP compilation are logD values, retold here.

The first series in a line: method code SF, from DOI: 10.1007/bf01990207, PMID: 819289. To be noted: pH 7.4.
The term logD denotes the decadic logarithm of the distribution of all forms, ionised or not, between an organic phase and buffer at a given pH. High values mean a more lipophilic compound, low ones a more hydrophilic compound. The compound `CC(C)CNC(=O)CNC(=O)C=[N+]=[N-]` gave a logD of 0.37.
`CCCNC(=O)CNC(=O)C=[N+]=[N-]` returned a logD of -0.24.
With `[N-]=[N+]=CC(=O)NCC(=O)NN`, the logD is -0.76.
Same read-out and setting: to `CCOC(=O)CNC(=O)C=[N+]=[N-]` belongs -0.08; to `CC(C)NC(=O)CNC(=O)C=[N+]=[N-]`, -0.41.
Consider `CCNC(=O)CNC(=O)C=[N+]=[N-]`, for which the logD is -0.62.
Same read-out and setting: under `[N-]=[N+]=CC(=O)NCC(=O)NCCO` stands -1.35; under `[N-]=[N+]=CC(=O)NCC(N)=O`, -1.26.
On the same count and under the same terms, under `CNC(=O)CNC(=O)C=[N+]=[N-]` stands -0.87.

The next series can be described thus: method code SF-AS, from DOI: 10.1007/bf01990207, PMID: 819289. To be noted: pH 7.4.
The compound `CCCCCCNC(=O)CNC(=O)C=[N+]=[N-]` gave a log distribution coefficient (logD) of 1.51.
